From the NIST ThermoML archive (doi:10.1021/je7000446)

Experiment: relative permittivity at various frequencies (dimensionless)
Conditions: Fluid (supercritical or subcritical phases), Frequency=0.06 MHz, Parallel plate capacitor

COC(F)(F)C(F)(F)F [methyl pentafluoroethyl ether]
Conditions | relative permittivity
312.9 K, 1500 kPa | 6.94
312.9 K, 3200 kPa | 7
312.9 K, 6100 kPa | 7.08
312.9 K, 8300 kPa | 7.14
312.9 K, 10400 kPa | 7.2
312.9 K, 12500 kPa | 7.25
312.9 K, 14400 kPa | 7.29
312.9 K, 16500 kPa | 7.34
312.9 K, 18300 kPa | 7.37
312.9 K, 26200 kPa | 7.51
312.9 K, 27800 kPa | 7.53
318 K, 1500 kPa | 6.78
318 K, 3200 kPa | 6.85
318 K, 6300 kPa | 6.95
318 K, 8300 kPa | 7.01
318 K, 10400 kPa | 7.06
318 K, 12400 kPa | 7.11
318 K, 14100 kPa | 7.15
318 K, 16400 kPa | 7.19
318 K, 18300 kPa | 7.22
318 K, 20400 kPa | 7.27
318 K, 22200 kPa | 7.29
318 K, 23800 kPa | 7.31
323.4 K, 2000 kPa | 6.65
323.4 K, 3200 kPa | 6.69
323.4 K, 4400 kPa | 6.73
323.4 K, 6600 kPa | 6.79
323.4 K, 8300 kPa | 6.84
323.4 K, 10100 kPa | 6.89
323.4 K, 12200 kPa | 6.94
323.4 K, 14000 kPa | 7
323.4 K, 16000 kPa | 7.05
323.4 K, 18000 kPa | 7.09
323.4 K, 20000 kPa | 7.12
323.4 K, 22200 kPa | 7.16
323.4 K, 24400 kPa | 7.2
323.4 K, 26300 kPa | 7.24
323.4 K, 28400 kPa | 7.27

CC(F)(F)F [1,1,1-trifluoroethane]
Conditions | relative permittivity
302.8 K, 1600 kPa | 9.28
302.8 K, 4000 kPa | 9.44
302.8 K, 6200 kPa | 9.56
302.8 K, 8200 kPa | 9.67
302.8 K, 10200 kPa | 9.77
302.8 K, 12300 kPa | 9.86
302.8 K, 16200 kPa | 10.02
302.8 K, 18500 kPa | 10.1
302.8 K, 20100 kPa | 10.16
302.8 K, 22000 kPa | 10.24
302.8 K, 24200 kPa | 10.31
302.8 K, 26300 kPa | 10.38
302.8 K, 28300 kPa | 10.44
302.8 K, 30700 kPa | 10.51
313.2 K, 1700 kPa | 8.61
313.2 K, 2700 kPa | 8.69
313.2 K, 4200 kPa | 8.82
313.2 K, 6300 kPa | 8.96
313.2 K, 8000 kPa | 9.05
313.2 K, 8800 kPa | 9.12
313.2 K, 14200 kPa | 9.39
313.2 K, 16300 kPa | 9.49
313.2 K, 18400 kPa | 9.58
313.2 K, 20400 kPa | 9.67
313.2 K, 21800 kPa | 9.73
313.2 K, 24200 kPa | 9.81
313.2 K, 26100 kPa | 9.87
313.2 K, 28400 kPa | 9.9
313.2 K, 30300 kPa | 9.95
313.2 K, 31600 kPa | 9.98
322.8 K, 2400 kPa | 8.08
322.8 K, 4500 kPa | 8.27
322.8 K, 6500 kPa | 8.43
322.8 K, 8400 kPa | 8.56
322.8 K, 10300 kPa | 8.68
322.8 K, 12100 kPa | 8.79
322.8 K, 14300 kPa | 8.89
322.8 K, 16300 kPa | 8.98
322.8 K, 18300 kPa | 9.07
322.8 K, 20200 kPa | 9.16
322.8 K, 22300 kPa | 9.24
322.8 K, 24400 kPa | 9.32
322.8 K, 26200 kPa | 9.38
322.8 K, 27900 kPa | 9.43
322.8 K, 28800 kPa | 9.46
322.8 K, 31000 kPa | 9.49
333 K, 1500 kPa | 7.35
333 K, 2600 kPa | 7.45
333 K, 4400 kPa | 7.66
333 K, 6300 kPa | 7.84
333 K, 8400 kPa | 8.01
333 K, 10300 kPa | 8.14
333 K, 12400 kPa | 8.26
333 K, 14400 kPa | 8.38
333 K, 16300 kPa | 8.48
333 K, 18300 kPa | 8.58
333 K, 20100 kPa | 8.66
333 K, 21100 kPa | 8.7
333 K, 22400 kPa | 8.73
333 K, 24100 kPa | 8.8
333 K, 26000 kPa | 8.87
333 K, 27400 kPa | 8.93
333 K, 29300 kPa | 8.99
343.4 K, 2200 kPa | 6.66
343.4 K, 3000 kPa | 6.79
343.4 K, 4000 kPa | 6.95
343.4 K, 5000 kPa | 7.06
343.4 K, 6200 kPa | 7.2
343.4 K, 8100 kPa | 7.4
343.4 K, 9200 kPa | 7.47
343.4 K, 10400 kPa | 7.58
343.4 K, 12300 kPa | 7.71
343.4 K, 14200 kPa | 7.83
343.4 K, 16200 kPa | 7.94
343.4 K, 18200 kPa | 8.04
343.4 K, 20300 kPa | 8.14
343.4 K, 22200 kPa | 8.22
343.4 K, 24200 kPa | 8.31
343.4 K, 26000 kPa | 8.37
343.4 K, 28000 kPa | 8.45
343.4 K, 29500 kPa | 8.5
353.4 K, 2600 kPa | 6.05
353.4 K, 4600 kPa | 6.39
353.4 K, 6400 kPa | 6.65
353.4 K, 8100 kPa | 6.84
353.4 K, 10000 kPa | 6.99
353.4 K, 12200 kPa | 7.15
353.4 K, 14400 kPa | 7.29
353.4 K, 16400 kPa | 7.41
353.4 K, 18300 kPa | 7.52
353.4 K, 20200 kPa | 7.6
353.4 K, 22200 kPa | 7.7
353.4 K, 24400 kPa | 7.78
353.4 K, 26400 kPa | 7.86
353.4 K, 28600 kPa | 7.95
363.8 K, 3600 kPa | 5.46
363.8 K, 4300 kPa | 5.73
363.8 K, 6100 kPa | 6.09
363.8 K, 8200 kPa | 6.37
363.8 K, 10200 kPa | 6.57
363.8 K, 12200 kPa | 6.74
363.8 K, 14200 kPa | 6.88
363.8 K, 16200 kPa | 7.01
363.8 K, 18200 kPa | 7.12
363.8 K, 20300 kPa | 7.22
363.8 K, 22200 kPa | 7.31
363.8 K, 24300 kPa | 7.41
363.8 K, 26000 kPa | 7.48
363.8 K, 28200 kPa | 7.56
363.8 K, 30000 kPa | 7.63
363.8 K, 31200 kPa | 7.66
372.9 K, 4000 kPa | 4.66
372.9 K, 6300 kPa | 5.55
372.9 K, 8200 kPa | 5.86
372.9 K, 10100 kPa | 6.08
372.9 K, 12200 kPa | 6.27
372.9 K, 14200 kPa | 6.42
372.9 K, 16000 kPa | 6.53
372.9 K, 18000 kPa | 6.65
372.9 K, 20200 kPa | 6.75
372.9 K, 22200 kPa | 6.85
372.9 K, 24200 kPa | 6.94
372.9 K, 26200 kPa | 7.02
372.9 K, 28100 kPa | 7.09
372.9 K, 29800 kPa | 7.15
372.9 K, 30700 kPa | 7.18
383.1 K, 4800 kPa | 3.97
383.1 K, 5800 kPa | 4.7
383.1 K, 6800 kPa | 5.06
383.1 K, 8200 kPa | 5.35
383.1 K, 10400 kPa | 5.65
383.1 K, 12000 kPa | 5.8
383.1 K, 14200 kPa | 6.09
383.1 K, 16200 kPa | 6.24
383.1 K, 18400 kPa | 6.38
383.1 K, 20000 kPa | 6.48
